{"source": "patent US7645773B2", "about": "“Thiazoles as inhibitors of 11β-hydroxysteroid dehydrogenase” (Hoffmann-La Roche Inc., priority 2006, dated 2010)", "target": "Purified human HSD1 (Homo sapiens, UniProt P28845)", "sequence (P28845 whole entry)": "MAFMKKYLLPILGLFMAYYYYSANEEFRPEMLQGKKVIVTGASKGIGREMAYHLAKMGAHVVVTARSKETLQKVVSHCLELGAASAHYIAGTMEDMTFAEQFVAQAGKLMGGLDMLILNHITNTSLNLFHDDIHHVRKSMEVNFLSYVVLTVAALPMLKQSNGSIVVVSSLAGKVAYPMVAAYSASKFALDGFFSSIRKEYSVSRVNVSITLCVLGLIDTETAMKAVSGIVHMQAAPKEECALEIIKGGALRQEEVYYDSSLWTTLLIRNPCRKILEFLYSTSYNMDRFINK", "test": "In vitro inhibition of 11β-HSD1, enzyme assay (time-resolved fluorescence)", "format": "biochemical", "settings": "purified human HSD1, cortisone substrate, 37° C. for 30 min", "experimental": "Purified human HSD1 was diluted in 50 mM Tris-HCl, 100 mM NaCl, 0.1 mg/mL BSA, 0.02% Lubrol, 20 mM MgCl2, 10 mM glucose 6-phosphate, 0.4 mM NADPH, 60 U/mL glucose 6-phosphate dehydrogenase to a concentration of 1.5 μg/mL (Enzyme Solution). Cortisone (100 μM) in DMSO was diluted to 1 μM with 50 mM Tris-HCl, 100 mM NaCl (Substrate Solution). Test compounds (40 μM) in DMSO were diluted 3 fold in series in DMSO and further diluted 20 fold in Substrate Solution. Enzyme Solution (10 μL/well) was added into 384 well microtiter plates followed by diluted compound solutions (10 μL/well) and mixed well. Samples were then incubated at 37° C. for 30 min. EDTA/biotin-cortisol solution (10 μL/well) in 28 mM EDTA, 100 nM biotin-cortisol, 50 mM Tris-HCl, 100 mM NaCl was then added followed by 5 μL/well of anti-cortisol antibody (3.2 μg/mL) in 50 mM Tris-HCl, 100 mM NaCl, 0.1 mg/mL BSA and the solution was incubated at 37° C. for 30 min. Five μL per well of Eu-conjugated anti-mouse IgG (16 nM) and APC-conjugated streptavidin (160 nM) in 50 mM Tris-HCl, 100 mM NaCl, 0.1 mg/mL BSA was added and the solution was incubated at room temperature for 2 hours. Signals were quantitated by reading time-resolved fluorescence on a Victor 5 reader (Wallace).\nPercent inhibition of HSD1 activity by an agent at various concentrations was calculated by the following formula: % Inhibition=100*[1−(Fs−Fb)/(Ft−Fb)], wherein: • Fs is the fluorescence signal of the sample which included the agent, • Fb is the fluorescence signal in the absence of HSD1 and agent, • Ft is the fluorescence signal in the presence of HSD1, but no agent.\nThe inhibitory activities of test compounds were determined by the IC50s, or the concentration of compound that gave 50% inhibition."}
{"compound": "O=C(c1csc(-c2ccccc2Cl)n1)N1CCCCCCC1", "note": "[Example 10, Azocan-1-yl-[2-(2-chloro-phenyl)-thiazol-4-yl]-methanone]", "values": [{"measurement": "IC50", "result": 50, "unit": "nM"}]}
{"compound": "COc1ccc(-c2nc(C(=O)N3CCCC4CCCCC43)cs2)cc1", "note": "(stereo not drawn) [Example 17, [2-(4-Methoxy-phenyl)-thiazol-4-yl]-(octahydro-quinolin-1-yl)-methanone]", "values": [{"measurement": "IC50", "result": 373, "unit": "nM"}]}
{"compound": "O=C(N[C@H]1CC[C@H](O)CC1)c1csc(-c2ccccc2Cl)n1", "note": "[Example 124, 2-(2-Chloro-phenyl)-thiazole-4-carboxylic acid (4-hydroxy-cyclohexyl)-amide]", "values": [{"measurement": "IC50", "result": 1900, "unit": "nM"}]}
{"compound": "CC(=O)c1ccccc1-c1nc(C(=O)NC2CCCCCC2)cs1", "note": "[Example 144, 2-(2-Acetyl-phenyl)-thiazole-4-carboxylic acid cycloheptyl amide]", "values": [{"measurement": "IC50", "result": 32, "unit": "nM"}]}
{"compound": "C[C@@H]1CCC[C@H](C)N1C(=O)c1csc(-c2ccccc2Cl)n1", "note": "[Example 115, [2-(2-Chloro-phenyl)-thiazol-4-yl]-((2S,6R)-2,6-dimethyl-piperidin-1-yl)-methanone]", "values": [{"measurement": "IC50", "result": 340, "unit": "nM"}]}
{"compound": "O=C(c1csc(-c2ccc(-c3ccccc3)cc2)n1)N1CCCC2CCCCC21", "note": "(stereo not drawn) [Example 180, (2-Biphenyl-4-yl-thiazol-4-yl)-(octahydro-quinolin-1-yl)-methanone]", "values": [{"measurement": "IC50", "result": 930, "unit": "nM"}]}
{"compound": "COc1cccc(Cl)c1-c1nc(C(=O)N2CCCC3CCCCC32)cs1", "note": "(stereo not drawn) [Example 117, [2-(2-Chloro-6-methoxy-phenyl)-thiazol-4-yl]-(octahydro-quinolin-1-yl)-methanone]", "values": [{"measurement": "IC50", "result": 1500, "unit": "nM"}]}
{"compound": "O=C(c1csc(-c2cccc(Cl)c2Cl)n1)N1CCCC[C@H]1c1ccccn1", "note": "[Example 96, [2-(2,3-Dichloro-phenyl)-thiazol-4-yl]-(S)-3,4,5,6-tetrahydro-2H-[2,2′]bipyridinyl-1-yl-methanone]", "values": [{"measurement": "IC50", "result": 40, "unit": "nM"}]}
{"compound": "COc1ccccc1-c1nc(C(=O)N2CCCCC2C)cs1", "note": "(stereo not drawn) [Example 119, [2-(2-Methoxy-phenyl)-thiazol-4-yl]-(2-methyl-piperidin-1-yl)-methanone]", "values": [{"measurement": "IC50", "result": 730, "unit": "nM"}]}
{"compound": "CCOc1cc(Cl)ccc1-c1nc(C(=O)N2CCCC3CCCCC32)cs1", "note": "(stereo not drawn) [Example 46, [2-(4-Chloro-2-ethoxy-phenyl)-thiazol-4-yl]-(octahydro-quinolin-1-yl)-methanone]", "values": [{"measurement": "IC50", "result": 102, "unit": "nM"}]}
{"compound": "Cc1ccc(-c2nc(C(=O)N3CC(C)CC(C)C3)cs2)cc1", "note": "(stereo not drawn) [Example 33, (3,5-Dimethyl-piperidin-1-yl)-(2-p-tolyl-thiazol-4-yl)-methanone]", "values": [{"measurement": "IC50", "result": 365, "unit": "nM"}]}
{"compound": "O=C(c1csc(-c2cccc(OCc3ccccc3)c2)n1)N1CCCC2CCCCC21", "note": "(stereo not drawn) [Example 61, [2-(3-Benzyloxy-phenyl)-thiazol-4-yl]-(octahydro-quinolin-1-yl)-methanone]", "values": [{"measurement": "IC50", "result": 457, "unit": "nM"}]}
